Measured values: US20130210061A1, “Method of Screening Damp-Dry Malodor Inhibitor and Method of Evaluating Damp-Dry Malodor Inhibitor” (KAO CORPORATION, priority 2010, published 2013)

Key:
Assay in all cases: Example 1: quantification of 4M3H on cotton fabric with 14-methylhexadecanoic acid
P. alcaligenes No. 41 = assay type: cell-based, Pseudomonas alcaligenes; details: 37° C., 24 hours, vs sterilized water
Protocol: (§1) 10 mL of methanol was added to the towel that had been left to stand still for 24 hours, and 1 mL of the methanol was mixed with 1 mL of ADAM (9-anthrydiazomethanene, manufactured by Funakoshi Corp., 0.1 w/v %). The mixture was left to stand for 60 minutes at room temperature, and thus derivatization was carried out.
(§2) Thereafter, 10 μL of the solution was analyzed by using LC-FL (liquid chromatography apparatus: HITACHI ELITE LaChrom (trade name, manufactured by Hitachi, Ltd.), column: Lichrosphere 100 RP-8(e) (trade name, manufactured by Agilent Technologies, Inc., 5 μm×125 mm×4 mmφ), column temperature: 40° C., eluent a mixed solution of acetonitrile/water=7/3 (volume ratio), flow rate: 1.0 mL/min, detector: excitation wavelength (365 nm), measurement wavelength (412 nm)), and thereby quantification of 4M3H thus produced was carried out. In regard to the amount of production of 4M3H, a sample which produced 4M3H in an amount of more than 1 μg was rated as “[…]”; a sample which produced 4M3H in an amount of more than 0.1 μg and 1 μg or less was rated as “∘”; a sample which produced 4M3H in an amount of more than 0 μg and 0.1 μg or less was rated as “Δ”; and a sample in which no 4M3H was detected was rated as “x”.
(§3) One platinum loop of each of Moraxella osloensis NCIMB10693, Moraxella sp. 4-1, Psychrobacter pacificensis NBRC103191, Psychrobacter glacincola NCIMB101053, Pseudomonas alcaligenes No. 41, Acinetobacter calcoaceticus HH2BD-49, Saccaromyces cerevisiae NBRC1661, Rhodotorula mucilaginosa NBRC0909 and Rhodotorula slooffiae 13c was inoculated into 5 mL of a SCD liquid medium (manufactured by Nihon Pharmaceutical Co., Ltd.), and the microbial cells were subjected to shaking culture (160 rpm) at 35° C. for 24 hours. The microbial cells obtained after culture were centrifuged (8000×g, 10 minutes), the supernatant was removed, and then the microbial cells were suspended in 5 mL of physiological saline. The suspension was centrifuged again (8000×g, 10 minutes), subsequently the supernatant was removed, and a microbial suspension was prepared by using physiological saline such that the OD600 would be 0.1.
(§4) Furthermore, 0.1 mL each of 10-ppm or 100-ppm aqueous solutions of the compounds shown in the following Table 6 was applied on the fabric described above. As a control, a fabric on which sterilized water was applied instead of the compounds described below was also prepared.
(§5) On a plain-woven cotton fabric prepared as described above, 0.1 mL each of the various microbial suspensions was inoculated, and the samples were left to stand still under humidified conditions at 37° C. for 24 hours and were subjected to an evaluation such as described below.
(§6) Quantification of 4M3H was carried out by the same method as that used in Test Example 3, and by taking as a reference the 4M3H production amount of a sample on which sterilized water was applied as a test substance, the 4M3H production amounts in the case of applying other test substances were evaluated on the basis of the following criteria. • A: (4M3H production amount in the case of applying a test substance)<( 1/100 of the 4M3H production amount in the case of applying sterilized water) • B: ( 1/100 of the 4M3H production amount in the case of applying sterilized water)≦(4M3H production amount in the case of applying a test substance)<( 1/10 of the 4M3H production amount in the case of applying sterilized water) • C: ( 1/10 of the 4M3H production amount in the case of applying sterilized water)≦(4M3H production amount in the case of applying a test substance)<(4M3H production amount in the case of applying sterilized water) • D: (4M3H production amount in the case of applying sterilized water)≦(4M3H production amount in the case of applying a test substance)

S. cerevisiae NBRC1661 = assay type: cell-based, Saccaromyces cerevisiae; details: 37° C., 24 hours, vs sterilized water
Protocol: as §1, §2, §3, §4, §5, §6

R. muculaginosa NBRC0909 = assay type: cell-based, Rhodotorula mucilaginosa; details: 37° C., 24 hours, vs sterilized water
Protocol: as §1, §2, §3, §4, §5, §6

M. osloensis NCIMB10693 = assay type: cell-based, Moraxella osloensis; details: M. osloensis NCIMB10693, cotton fabric with 14-methylhexadecanoic acid, 37° C., 24 hours, vs sterilized water
Protocol: as §1, §2, §3, §4, §5, §6

[1] = system: A. calcoaceticus HH2BD-49; assay type: cell-based, Acinetobacter calcoaceticus; details: 37° C., 24 hours, vs sterilized water
Protocol: as §1, §2, §3, §4, §5, §6

R. slooffiae 13c = assay type: cell-based, Rhodotorula slooffiae; details: 37° C., 24 hours, vs sterilized water
Protocol: as §1, §2, §3, §4, §5, §6

[2] = system: P. pacificensis NBRC103191; assay type: cell-based, Psychrobacter pacificensis; details: 37° C., 24 hours, vs sterilized water
Protocol: as §1, §2, §3, §4, §5, §6

P. glacincola NBRC101053 = assay type: cell-based, Psychrobacter glacincola; details: 37° C., 24 hours, vs sterilized water
Protocol: as §1, §2, §3, §4, §5, §6

Moraxella sp. 4-1 = assay type: cell-based; details: 37° C., 24 hours, vs sterilized water
Protocol: as §1, §2, §3, §4, §5, §6

| Molecule | Production amount of 4M3H (P. alcaligenes No. 41; 10 ppm test substance) | Production amount of 4M3H (P. alcaligenes No. 41; 100 ppm test substance) | Production amount of 4M3H (S. cerevisiae NBRC1661; 10 ppm test substance) | Production amount of 4M3H (S. cerevisiae NBRC1661; 100 ppm test substance) | Production amount of 4M3H (R. muculaginosa NBRC0909; 10 ppm test substance) | Production amount of 4M3H (R. muculaginosa NBRC0909; 100 ppm test substance) | activity at 10 ppm (M. osloensis NCIMB10693; Faucicola osloensis, 10 ppm test substance, read-out: Production amount of 4M3H) [%] | activity at 100 ppm (M. osloensis NCIMB10693; Faucicola osloensis, 100 ppm test substance, read-out: Production amount of 4M3H) [%] | Production amount of 4M3H ([1]; 10 ppm test substance) | Production amount of 4M3H ([1]; 100 ppm test substance) | Production amount of 4M3H (R. slooffiae 13c; 10 ppm test substance) | Production amount of 4M3H (R. slooffiae 13c; 100 ppm test substance) | Production amount of 4M3H ([2]; 10 ppm test substance) | Production amount of 4M3H ([2]; 100 ppm test substance) | Production amount of 4M3H (P. glacincola NBRC101053; 10 ppm test substance) | Production amount of 4M3H (P. glacincola NBRC101053; 100 ppm test substance) | Production amount of 4M3H (Moraxella sp. 4-1; 10 ppm test substance) | Production amount of 4M3H (Moraxella sp. 4-1; 100 ppm test substance) | Production amount of 4M3H (M. osloensis NCIMB10693; 100 ppm test substance) |
| --- | --- | --- | --- | --- | --- | --- | --- | --- | --- | --- | --- | --- | --- | --- | --- | --- | --- | --- | --- |
| Cc1ccc(C(C)C)c(O)c1 [Thymol] | D ((4M3H production amount in the case of applying sterilized water)≦(4M3H production amount in the case of applying a test substance)) | C (( 1/10 of the 4M3H production amount in the case of applying sterilized water)≦(4M3H production amount in the case of applying a test substance)<(4M3H production amount in the case of applying sterilized water)) | C (( 1/10 of the 4M3H production amount in the case of applying sterilized water)≦(4M3H production amount in the case of applying a test substance)<(4M3H production amount in the case of applying sterilized water)) | D ((4M3H production amount in the case of applying sterilized water)≦(4M3H production amount in the case of applying a test substance)) | D ((4M3H production amount in the case of applying sterilized water)≦(4M3H production amount in the case of applying a test substance)) | A ((4M3H production amount in the case of applying a test substance)<( 1/100 of the 4M3H production amount in the case of applying sterilized water)) | 1 to 10 | < 1 | D ((4M3H production amount in the case of applying sterilized water)≦(4M3H production amount in the case of applying a test substance)) | C (( 1/10 of the 4M3H production amount in the case of applying sterilized water)≦(4M3H production amount in the case of applying a test substance)<(4M3H production amount in the case of applying sterilized water)) | D ((4M3H production amount in the case of applying sterilized water)≦(4M3H production amount in the case of applying a test substance)) | C (( 1/10 of the 4M3H production amount in the case of applying sterilized water)≦(4M3H production amount in the case of applying a test substance)<(4M3H production amount in the case of applying sterilized water)) | D ((4M3H production amount in the case of applying sterilized water)≦(4M3H production amount in the case of applying a test substance)) | B (( 1/100 of the 4M3H production amount in the case of applying sterilized water)≦(4M3H production amount in the case of applying a test substance)<( 1/10 of the 4M3H production amount in the case of applying sterilized water)) | C (( 1/10 of the 4M3H production amount in the case of applying sterilized water)≦(4M3H production amount in the case of applying a test substance)<(4M3H production amount in the case of applying sterilized water)) | B (( 1/100 of the 4M3H production amount in the case of applying sterilized water)≦(4M3H production amount in the case of applying a test substance)<( 1/10 of the 4M3H production amount in the case of applying sterilized water)) | C (( 1/10 of the 4M3H production amount in the case of applying sterilized water)≦(4M3H production amount in the case of applying a test substance)<(4M3H production amount in the case of applying sterilized water)) | B (( 1/100 of the 4M3H production amount in the case of applying sterilized water)≦(4M3H production amount in the case of applying a test substance)<( 1/10 of the 4M3H production amount in the case of applying sterilized water)) |  |
| Alkyl benzyl dimethyl ammonium chloride |  | D ((4M3H production amount in the case of applying sterilized water)≦(4M3H production amount in the case of applying a test substance)) |  | C (( 1/10 of the 4M3H production amount in the case of applying sterilized water)≦(4M3H production amount in the case of applying a test substance)<(4M3H production amount in the case of applying sterilized water)) |  | D ((4M3H production amount in the case of applying sterilized water)≦(4M3H production amount in the case of applying a test substance)) |  |  |  | D ((4M3H production amount in the case of applying sterilized water)≦(4M3H production amount in the case of applying a test substance)) |  | D ((4M3H production amount in the case of applying sterilized water)≦(4M3H production amount in the case of applying a test substance)) |  | D ((4M3H production amount in the case of applying sterilized water)≦(4M3H production amount in the case of applying a test substance)) |  | C (( 1/10 of the 4M3H production amount in the case of applying sterilized water)≦(4M3H production amount in the case of applying a test substance)<(4M3H production amount in the case of applying sterilized water)) |  | D ((4M3H production amount in the case of applying sterilized water)≦(4M3H production amount in the case of applying a test substance)) | D ((4M3H production amount in the case of applying sterilized water)≦(4M3H production amount in the case of applying a test substance)) |
